In PMC11843613, “Further Optimization of the mGlu1 PAM VU6024578/BI02982816: Discovery and Characterization of VU6033685” (ACS Chemical Neuroscience, 2025):

Tests used:
[1] = Plasma protein binding, equilibrium dialysis (rat); type: in vitro ADME; details: pH 7.4, rat plasma, read-out: fu plasma (r)
Method: page 13: at half log concentrations in DMSO were further diluted in assay buffer. The compounds or DMSO vehicle were added to cells and incubated for 2.5 min and an EC20 concentration of glutamate was added and incubated for 1 min. An ECmax concentration of glutamate was also added to cells that were incubated with DMSO vehicle to accurately calculate the EC20 calcium response. Data were normalized by subtracting the basal florescent peak before EC20 agonist addition from the maximal peak elicited by EC20 agonist and PAMs. Using GraphPad Prism 5.0, the concentration response curves were generated and the potencies of the mGlu1 PAMs were determined. DMPK Methods Plasma protein binding: The protein binding of each compound was determined in plasma via equilibrium dialysis employing RED Plates (ThermoFisher Scientific, Rochester, NY). Plasma was added to the 96 well plate containing test compound and mixed thoroughly for a final concentration of 5 µM. Subsequently, an aliquot of the plasma-compound mixture was transferred to the cis chamber (red) of the RED plate, with an phosphate buffer (25 mM, pH 7.4) in the trans chamber. The RED plate was sealed and incubated for 4 hours at 37°C with shaking. At completion, aliquots from each chamber were diluted 1:1 with either plasma (cis) or buffer (trans) and transferred to a new 96 well plate, at which time ice-cold acetonitrile containing internal standard (50 ng/mL carbamazepine) (2 volumes) was added to extract the matrices. The plate was centrifuged (3000 rcf, 10 min) and supernatants transferred and diluted 1:1 (supernatant: water) into a new 96 well plate, which was then sealed in preparation for LC/MS/MS analysis. Each compound was assayed in triplicate within the same 96-well plate. Fraction unbound was determined using the following equation F = Concbuffer u Conc plasma Intrinsic clearance: Human or rat hepatic microsomes (0.5 mg/mL) and 1 µM test compound were incubated in 100 mM potassium phosphate pH 7.4 buffer with 3 mM MgCl2 at 37°C with constant shaking. After a 5 min preincubation, the reaction was initiated by addition of NADPH (1 mM). At selected time intervals (0, 3, 7, 15, 25, and 45 min), aliquots were taken and subsequently placed into a 96-well plate containing cold acetonitrile with internal standard (50 ng/mL carbamazepine). Plates were then centrifuged at 3000 rcf (4° C) for 10 min, and the supernatant was transferred to a separate 96-well plate and diluted 1:1 with water for LC/MS/MS analysis. The in vitro half-life (T 1/2, min, Eq. 1), intrinsic clearance (CLint, mL/min/kg, Eq. 2) and subsequent predicted hepatic clearance (CLhep, mL/min/kg, Eq. 3) was determined S13

[2] = target: T1, CYP450 2D6 (Homo sapiens, UniProt P10635); assay: Inhibition of cytochrome P450 enzymes in human liver microsomes, 2D6; type: in vitro ADME
T1 construct: 0.1 mg/mL human liver microsomes (HLM); from tissue; host or cells: human liver microsomes
T1 sequence (P10635 whole entry): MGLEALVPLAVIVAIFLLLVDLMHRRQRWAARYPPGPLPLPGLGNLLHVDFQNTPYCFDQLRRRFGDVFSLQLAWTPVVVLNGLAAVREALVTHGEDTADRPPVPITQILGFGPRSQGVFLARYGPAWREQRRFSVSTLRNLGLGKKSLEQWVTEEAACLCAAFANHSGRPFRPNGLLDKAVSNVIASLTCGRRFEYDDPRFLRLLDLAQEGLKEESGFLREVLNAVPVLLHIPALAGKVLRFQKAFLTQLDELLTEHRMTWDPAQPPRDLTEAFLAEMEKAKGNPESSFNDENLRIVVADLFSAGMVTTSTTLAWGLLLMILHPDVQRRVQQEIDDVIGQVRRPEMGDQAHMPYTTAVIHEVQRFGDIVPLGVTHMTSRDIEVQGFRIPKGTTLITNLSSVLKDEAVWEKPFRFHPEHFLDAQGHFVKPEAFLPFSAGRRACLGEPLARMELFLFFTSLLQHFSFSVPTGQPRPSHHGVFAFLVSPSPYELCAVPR
Method: Inhibition of Cytochrome P450 Enzymes: A cocktail of substrates for cytochrome P450 enzymes (1A2: Phenacetin, 10 µM; 2C9: Diclofenac, 5 µM; 2D6: Dextromethorphan, 5 µM; 3A4:
Midazolam, 2 µM) were mixed for cocktail analysis. For P450 2C19, the substrate stock (Mephenytoin, 40 µM )and substrate mix were prepared separately for discrete analysis. The […]
positive control for pan-P450 inhibition (miconazole) was included alongside each test compound […]
A reaction mixture of 100 mM Kpi, pH 7.4, 0.1 mg/mL human liver microsomes (HLM) and Substrate Mix is prepared and aliquoted into a 96-deepwell block. Test compound and positive control (in duplicate) were then added such that the final concentration of test compound ranged from 0.1 – 30 µM. The plate was vortexed briefly and then pre-incubated at 37 °C while shaking for 15 minutes. The reaction was initiated with the addition of NADPH (1 mM final concentration). The incubation continued for 8 min and the reaction quenched by 2x volume of cold acetonitrile containing internal standard (50 nM carbamazepine). The plate was centrifuged for 10 minutes (4000 rcf, 4°C) and the resulting supernatant diluted 1:1 with water for LC/MS/MS analysis. A 12 point standard curve of substrate metabolites over the range of 0.98 nM to 2000 […]
Samples were analyzed via electrospray ionization (ESI) on an AB Sciex API-4000 (Foster City, CA) triple-quadrupole instrument that was coupled with Shimadzu LC-10AD pumps (Columbia, MD) and a Leap Technologies CTC PAL auto-sampler (Carrboro, NC). Analytes were separated by gradient elution using a Fortis C18 3.0 x 50 mm, 3 µm column (Fortis Technologies Ltd, Cheshire, UK) thermostated at 40°C. HPLC mobile phase A was 0.1% formic acid in water (pH unadjusted), mobile phase B was 0.1% formic acid in acetonitrile (pH unadjusted). The gradient […]
90% B for 0.1 min and returned to 10% B in 0.1 min followed by a re-equilibration (0.9 min). The total run time was 2.5 min and the HPLC flow rate was 0.5 mL/min. The source temperature was set at 500°C and mass spectral analyses were performed using multiple reaction monitoring (MRM), with transitions specific for each compound utilizing a Turbo-Ionspray® source in positive ionization mode (5.0 kV spray voltage).
The IC50 values for each compound were obtained for the individual CYP enzymes by quantitating the inhibition of metabolite formation for each probe substrate. A 0 µM compound condition (or control) was set to 100% enzymatic activity and the effect of increasing test compound concentrations on enzymatic activity could then be calculated from the % of control activity.
Curves were fitted using XLfit 5.2.2 (four-parameter logistic model, equation 201) to determine the concentration that produces half-maximal inhibition (IC50).

[3] = Rat IV/PO pharmacokinetics; type: in vivo; details: for clearance / Tmax / Vd / half-life: plasma; for clearance / Vd: rat IV; for clearance: read-out: CLp; for Tmax / F po: rat PO; for Vd / half-life: rat; for Vd: iv, read-out: Vss; for half-life: read-out: Elimination t1/2 (converted)

What does the source list for Cc1nc(C2CC2)ccc1CNC(=O)c1cc(-n2cccn2)ccc1Cl [compound 8]?
fraction unbound at 4 h, 5 µM [1]: 0.097; IC50 [2]: > 30 µM; clearance [3]: 26.4 mL/min/kg; Tmax [3]: 30 min; F po [3]: 42.8%; Vd [3]: 5.1 L/kg; half-life [3]: 126 min

With Cn1nc(-c2ccnn2C)cc1CNC(=O)c1cc(-n2cccn2)ccc1Cl [compound 5] as the compound, how does the fraction unbound at 4 h, 5 µM [1] read?
Its fraction unbound at 4 h, 5 µM is 0.095.

What about the IC50 [2] of the same compound?
Its IC50 is > 30 µM.

And the clearance [3]?
The clearance was 2.9 mL/min/kg.

And the F po [3]?
Its F po is 45.7%.

What about the Vd [3] of the same compound?
Its Vd is 0.63 L/kg.

And the half-life [3]?
The half-life was 180 min.

With Cc1nc2ccccc2cc1CNC(=O)c1cc(-n2cccn2)ccc1Cl [compound 6] as the compound, how does the fraction unbound at 4 h, 5 µM [1] read?
The fraction unbound at 4 h, 5 µM was 0.054.

And the IC50 [2]?
Its IC50 is 6.9 µM.

And the clearance [3]?
Its clearance is 15.3 mL/min/kg.

What about the Tmax [3] of the same compound?
The Tmax was 30 min.

And the F po [3]?
The F po was 64%.

And the Vd [3]?
The Vd was 1.64 L/kg.

And the half-life [3]?
Its half-life is 66 min.

For Cc1nc2c(F)cccc2cc1CNC(=O)c1cc(-n2cccn2)ccc1Cl [compound 7], which fraction unbound at 4 h, 5 µM [1] is on record?
The fraction unbound at 4 h, 5 µM was 0.016.

And the IC50 [2]?
Its IC50 is > 30 µM.

What about the clearance [3] of the same compound?
Its clearance is 8 mL/min/kg.

And the Vd [3]?
Its Vd is 1 L/kg.

And the half-life [3]?
Its half-life is 126 min.

Which fraction unbound at 4 h, 5 µM [1] does the source give for Cn1cc(-c2cc(CNC(=O)c3cc(-c4ccco4)ccc3Cl)n(C)n2)cn1 [compound 4] here?
Its fraction unbound at 4 h, 5 µM is 0.04.

And the IC50 [2]?
Its IC50 is > 30 µM.
